Experimental data from patent US9549906B2, “Compositions and methods for treatment of ocular inflammation and/or pain” (priority 2013, dated 2017).
Entries after “also recorded” stand apart in the source; their conditions may differ.

How the values were obtained:
[1] = test system: endotoxin-induced uveitis (EIU) model; test: Endotoxin-induced uveitis (EIU) in rats, intravital microscopy of leukocyte-endothelial adhesion; assay type: in vivo, male Lewis rats
Method: The endotoxin-induced uveitis (EIU) model is a widely used animal model of human bacterially-derived uveitis, involving inflammation of the uveal tract. The uveal tract comprises the middle layer of the eye, including the iris, ciliary body and […].
EIU was induced in male Lewis rats by intravitreal injection of 100 ng of lipopolysaccharide (LPS, Escherichia coli) in saline. Treatments of the cannabinoid 2 receptor (CB2R) agonist, HU-433 were administered, in the presence and absence of the selective antagonist, AM630. Cannabinoid treatments involved intravenous (i.v.) HU-433 (0.001-1 mg/kg), AM630 (2.5 mg/kg i.v.) and AM630+HU-433, administered 15 minutes after intravitreal injection of LPS. Intravital microscopy (IVM) was used to observe leukocyte-endothelial adhesion each hour after induction of EIU for a duration of 6 hours.
Data in FIG. 1 was collected from experiments using an animal model of ocular inflammation called endotoxin-induced uveitis. […] The level of inflammation is quantified by counting the number of adherent leukocytes in the iris microcirculation. Leukocytes must adhere to the microvasculature for more than 30 s (measured as adherent leukocytes per mm^2). Imaging was conducted in a minimum of 4 quadrants within the eye, 4 vessels each quadrant, 6 hours after inflammation was induced.
The strain of animals chosen for these experiments was based on preliminary testing conducted and published literature (see, for example: Toguri et al., 2014). The strain of mice chosen was BALB/c and Lewis rats were used. Animals were anesthetised prior to induction of uveitis. Mice were anesthetized with 5% isoflurane in 100% oxygen. Rats were anesthetized with 65 mg·kg^−1 of sodium pentobarbital. Depth of anesthesia was monitored via toe pinch test. The head of the animal was immobilized, and the sclera of the left eye was punctured with a 30-gauge needle at the dorsonasal quadrant at approximately the level of the equator. Mice received a total of 250 ng of LPS (E. coli 026:B6; Sigma-Aldrich, Oakville, ON, Canada) in 2 μl of sterile 0.9% saline. Rats received a total of 100 ng of LPS in 5 μl of sterile 0.9% saline. Intravitreal injections were made under microscopic control with a Hamilton syringe (Hamilton Company, Reno, Nev., USA), with a 30 G1/6 needle. To avoid touching the lens or causing any damage to the eye, the tip of the needle was directed towards the posterior pole and only the bevelled tip (2-3 mm) entered the vitreal cavity. The needle was held in place after injection for 5 seconds to avoid leakage of the LPS from the site of injection (sclerostomy). Sclerostomy was closed by tissue adhesive to prevent any leakage. Animals with bleeding or swelling post injection were excluded from the study.

[2] = test system: corneal hypersensitivity to capsaicin; test: Corneal hyperalgesia model (silver nitrate cauterization), blinks to topical 1 μM capsaicin; assay type: in vivo, murine
Source text: The chemical cauterization model of corneal inflammation and hyperalgesia is an established model to look at corneal sensitization and pain. Chemical cauterization of the murine cornea using topical silver nitrate produces non-specific inflammation followed by chronic behavioral sensitization to subsequent chemical stimuli (modified from Wenk & Honda, 2003).
The corneal reflex blink test provides a behavioral assessment of corneal sensitization and hyperalgesia (decreased pain threshold). The hyperalgesia (defined as increased responsiveness to painful stimuli) is gauged by quantifying the number and frequency of a protective blinking response in the treated eye (stimulus-induced blinking) relative to control non-sensitized eyes (Wenk and Honda 2003). Anti-inflammatory agents and agents that act at targets on nociceptive nerves can reduce development of corneal sensitization and hyperalgesic activity (reduced protective blinking response in response to noxious irritant).
Using a model characterized by Wenk & Honda, 2003, chemical cauterization using silver nitrate application to the cornea was used to create a corneal hypersensitivity model. Hypersensitivity was determined by assessing blinks to an ocular topical application of 1 μM capsaicin. The blink response is one measure of the level of corneal hyperalgesia. Increased blinking in response to capsaicin in a cauterized eye indicates a higher level of pain (FIG. 9).
In a model of corneal hyperalgesia, chemical cauterization of the cornea produces corneal epithelial damage, corneal edema and inflammation. […] The effect of repeated dosing with the CB2 allosteric modulator, CBD-DMH, or the cannabinoid Δ^9THC that acts as an agonist at CB1 and CB2 receptors, was tested to determine if these agents could prevent the development of hyperalgesia. Animals were videoed before and after capsaicin administration using a handheld device and video images were analyzed off-line by an observer blinded to the treatment. […]

CB2 [3] = molecular target: T1, CB2 (Homo sapiens, UniProt P34972); test: In-Cell western, PLCβ3 phosphorylation (Gαq) in HEK 293A cells transfected with hCB2; assay type: cell-based; parameters: expressed in transfected cells; conditions: HEK293-A; percentage of the maximal response to the agonist CP 55,940; read-out: Emax (%) ± SEM, PLCβ3 (Gαq)
T1 sequence (P34972 whole entry): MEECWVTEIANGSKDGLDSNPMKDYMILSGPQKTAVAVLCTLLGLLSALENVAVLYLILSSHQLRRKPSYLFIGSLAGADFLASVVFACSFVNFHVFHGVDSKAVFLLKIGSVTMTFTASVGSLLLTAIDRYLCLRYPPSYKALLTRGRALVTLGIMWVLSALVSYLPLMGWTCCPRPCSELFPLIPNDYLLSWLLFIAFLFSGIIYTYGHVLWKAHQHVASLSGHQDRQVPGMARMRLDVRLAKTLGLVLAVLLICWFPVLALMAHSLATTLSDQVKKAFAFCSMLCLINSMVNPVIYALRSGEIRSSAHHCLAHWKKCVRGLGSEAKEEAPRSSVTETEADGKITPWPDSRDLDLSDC
Method: HEK cells were maintained at 37° C., 5% CO2 in Dulbecco's Modified Eagle's Medium (DMEM) supplemented with 10% Fetal Bovine Serum (FBS) and 10^4 U·mL^−1 Pen/Strep.
For In-Cell™ western analyses, cells were fixed for 10 min at room temperature with 4% paraformaldehyde and washed three times with 0.1 M PBS for 5 min each. Cells were incubated with blocking solution (0.1 M PBS, 5% normal goat serum, 0.3% TritonX-100, in dH2O) for 1 h at room temperature. Cells were treated with primary antibody diluted in antibody dilution buffer [0.1 M PBS, 1% (w/v) BSA, 0.3% TritonX-100, in dH2O] overnight at 4° C. Primary antibody solutions were: pERK1/2(Tyr205/185) (1:200), ERK1/2 (1:200), pPLCβ3(S537) (1:500), PLCβ3 (1:1000), or β-actin (1:2000; Santa Cruz Biotechnology). Cells were washed three times with 0.1 M PBS for 5 min each. Cells were then incubated in IR^CW800dye (1:500; Rockland Immunochemicals, Gilbertsville, Pa., USA) for 1 h at room temperature. Cells were washed three times with 0.1 M PBS for 5 min each. Cells were allowed to air-dry overnight.
In-Cell™ data were collected using the Odyssey Imaging system and software (version 3.0; Li-Cor, Lincoln, Nebr., USA).
Goodness of fit to non-linear regression models was tested in GraphPad (v. 5.0, Prism). […]

[4] = cited from earlier work; for stability: acidic solutions, heat, air and light
CB2 [5] = molecular target: T1, CB2; test: In vitro CB2-dependent G protein signalling, overall conclusion (ERK, PLCβ3, cAMP); assay type: cell-based; parameters: expressed in transfected cells; host or cells: HEK 293A cells (transient transfection)
Method: Following 30 min treatment cells were lysed and cAMP activity was measured at 405 nm (RLU, relative light units). Concentration-response curves were fit using non-linear regression analysis (GraphPad Prism, version 5.0).

dispase-induced PVR = test: Dispase model of proliferative vitreoretinopathy (PVR): clinical score, histopathology, Iba1 microglia; conditions: 10 mg/kg i.p. daily for 7 days
CB2 [6] = molecular target: T1, CB2; conditions: cited from earlier work
[7] = test system: endotoxin-induced uveitis (EIU) model; test: LPS-induced uveitis (EIU) in mice, intravital microscopy of adherent leukocytes; assay type: in vivo, BALB/c Mice; conditions: CBD-DMH 10 mg/kg i.v. once right after intravitreal LPS; IVM at 5 hours
Method: Two different EIU experimental groups were examined in BALB/c Mice: • Group (A): Intravital microscopy (IVM) at 5 hours after intravitreal injection of saline (control) • Group (B): IVM at 5 hours after induction of EIU and i.v. administration of drug vehicle control (1 time, 0.2 mL 30% ethanol in saline right after intravitreal injection) • Group (C): IVM at 5 hours after induction of EIU and i.v. administration of cannabinoid (1 time, 0.2 mL 10 mg/kg CBD-DMH right after intravitreal injection).
The strain of animals chosen for these experiments was based on preliminary testing conducted and published literature (see, for example: Toguri et al., 2014). […] Depth of anesthesia was monitored via toe pinch test. […]
The technique of intravital microscopy (IVM) was used for in vivo investigation of leukocyte recruitment. The intravital fluorescence video microscope was focused on the iridial microcirculation, which allowed for imaging of the leukocyte-endothelial interactions. […] In each video, leukocyte recruitment was observed and recorded for 30 seconds each. […]
Several videos of each quadrant were recorded for 30 seconds. Leukocyte adhesion was the parameter analyzed. […] The number of adherent leukocytes within each vessel segment was calculated by measuring the diameter and length of vessel segment studied, assuming a cylindrical geometry of blood vessel. […]

[8] = test system: experimental models of sepsis; test: Experimental models of sepsis; assay type: in vivo

In the case of `COc1ccc(C(=O)c2c(C)n(CCN3CCOCC3)c3cc(I)ccc23)cc1` [AM630, reference compound], the “number of adherent leukocytes to the microvasculature, antagonist alone” value ([1]; AM630 2.5 mg/kg i.v. alone, p<0.01) is reported as “significant increase” and the “effect of CB2R antagonist pre-treatment on the agonist's decrease in leukocyte adhesion” value ([1]; AM630 2.5 mg/kg i.v. prior to CB2R agonist in EIU) is reported as “abolished”.
For `C=C1CC/C=C(\C)CC[C@@H]2[C@@H]1CC2(C)C` [Beta-C, β-caryophyllene], the corneal hyperalgesia ([2]; Beta-C, dose not given) was “appeared to also produce a reduction in hyperalgesia”.
For `C=C(C)[C@@H]1CCC(C)=C[C@H]1c1c(O)cc(CCCCC)cc1O` [CBD, cannabidiol], the Emax (CB2 [3]) is listed as 51.7 ± 7.04%, the stability [4] is listed as “unstable in acidic solutions and when exposed to heat, air and light” and the water solubility [4] is listed as “poorly water-soluble”. For the same molecule, the “mode of action on CB2-dependent G protein signalling” value (CB2 [5]) was “partial agonist”.
In the case of `C=C(C)[C@@H]1CCC(C)=C[C@H]1c1c(O)cc(C(C)(C)CCCCCC)cc1O` [CBD-DMH, cannabidiol-dimethylheptyl], the “clinical score of PVR (scale 0-5)” value (dispase-induced PVR) is given as “significantly decreased”, the “histological score of PVR (scale 0-4)” value (dispase-induced PVR) is given as “significantly decreased” and the “potency relative to CBD” value (CB2 [6]; analgesic and anti-inflammatory effects in animal models) is given as “more than 10 fold”. For the same molecule, the psychoactivity (CB2 [6]) was “non-psychotropic”, the “mean number of blinks for 1 minute to 1 μM capsaicin” value ([2]; 6 hours post corneal insult, 3 doses topical 5% CBD-DMH, 1-way ANOVA p<0.05) was “statistically significant decrease in blinks compared to untreated and vehicle treated eyes” and the “corneal hypersensitivity (blinks over 1 minute to 1 μM capsaicin)” value ([2]; unilateral cauterized eye, 3 doses ocular topical 5% CBD-DMH) was “eliminates this hypersensitivity; also recorded: reduces hypersensitivity in a comparable matter to ocular topical NSAID; also recorded: eliminated hypersensitivity to capsaicin”. The “number of adherent leukocytes” value [7] was “decrease in number of adherent leukocytes”, the “activation of CB2 in the absence of the orthosteric agonist CP55940” value (CB2 [5]) was “does not activate CB2” and the “effect on potency and efficacy of the orthosteric CB2 agonist CP55940” value (CB2 [5]) was “enhances the potency and efficacy”. For the same molecule, the “mode of action on CB2-dependent G protein signalling” value (CB2 [5]) was “positive allosteric modulator”.
For `CCCCCCC(C)(C)c1cc(OC)c(C2C=C(CO)C3CC2C3(C)C)c(OC)c1` (stereo not shown) [HU-433], the “number of adherent leukocytes in the iris microcirculation” value ([1]; HU-433 0.1 mg/kg i.v., 6 hours after intravitreal LPS, 0.1 mg/kg) was “significantly (p<0.05) reduce; also recorded: fewer adherent leukocytes”, the “leukocyte-endothelial adhesion (inflammation)” value ([1]; HU-433 i.v. 0.01 and 0.1 mg/kg, 6 hours after induction of EIU) was “significantly (p<0.01) reduced” and the “local release of inflammatory mediators” value ([1]; acute EIU) was “decreases local release of inflammatory mediators”. For the same molecule, the “potency in reducing ocular inflammation relative to HU-308” value ([1]; experimental uveitis) was “more potent than HU-308”, the psychoactivity (CB2 [6]) was “no psychoactivity” and the “potency relative to HU-308” value (CB2 [6]; in vitro and in vivo systems) was 2-3 orders of magnitude. For the same molecule, the “potency in mitigating inflammation relative to HU-308” value [8] was “more potent than HU-308”.
For `CCCCCc1cc(O)c2c(c1)OC(C)(C)[C@@H]1CCC(C)=C[C@@H]21` [THC], the stability [4] is listed as “unstable in acidic solutions and when exposed to heat, air and light”.
